Source: ChEMBL document CHEMBL4507310, “Data for DCP probe A-1211212” (2021)
Activity calls are given as the source filed them. No cut-off for these calls is given here.

Assays:
[1] = target: Apoptosis regulator Bcl-2 (Homo sapiens, UniProt P10415); assay: Time-resolved fluorescence energy transfer (TR-FRET) with BCL2
[2] = target: Type-2 angiotensin II receptor (Homo sapiens) (UniProt P50052); assay: AT2 (h) Eurofins-Cerep binding assay; set-up: ligand concentration 0.01 nM; conditions: filed as agonist, Compound concentration 10.0 uM
[3] = target: Cholecystokinin receptor type A (Homo sapiens) (UniProt P32238); assay: CCK1 (CCKA) (h) Eurofins-Cerep binding assay; set-up: ligand concentration 0.08 nM; conditions: filed as agonist, Compound concentration 10.0 uM
[4] = target: GABA-A receptor; alpha-1/beta-2/gamma-2 (Homo sapiens) (UniProt P14867+P47870+P18507); assay: GABAA1 (h) (alpha1,beta2,gamma2) Eurofins-Cerep binding assay; assay type: protein-complex assay; set-up: ligand concentration 15 nM; conditions: filed as agonist, Compound concentration 10.0 uM
[5] = target: T1, Muscarinic acetylcholine receptor M4 (Homo sapiens) (UniProt P08173); assay: M4 (h) Eurofins-Cerep binding assay; set-up: ligand concentration 0.2 nM; conditions: filed as antagonist, Compound concentration 10.0 uM
T1 sequence (whole entry): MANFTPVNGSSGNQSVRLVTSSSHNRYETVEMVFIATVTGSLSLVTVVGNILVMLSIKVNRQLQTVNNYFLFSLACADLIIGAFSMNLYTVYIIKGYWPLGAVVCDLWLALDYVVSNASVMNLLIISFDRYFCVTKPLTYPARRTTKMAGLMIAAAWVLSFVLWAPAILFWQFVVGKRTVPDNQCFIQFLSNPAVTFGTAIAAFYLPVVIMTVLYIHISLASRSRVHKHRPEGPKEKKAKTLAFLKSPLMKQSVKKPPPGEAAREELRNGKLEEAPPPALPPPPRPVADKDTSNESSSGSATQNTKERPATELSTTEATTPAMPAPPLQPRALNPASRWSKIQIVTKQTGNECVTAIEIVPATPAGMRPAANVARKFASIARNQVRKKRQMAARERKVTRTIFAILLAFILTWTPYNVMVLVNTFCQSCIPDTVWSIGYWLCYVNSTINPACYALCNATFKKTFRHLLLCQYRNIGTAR

[6] = system: Tyrosine-protein kinase ABL1 (Homo sapiens), P00519 [T315I]; conditions: Compound concentration 1000.0 nM
[7] = target: Atypical kinase COQ8B, mitochondrial (Homo sapiens) (UniProt Q96D53); conditions: Compound concentration 1000.0 nM
[8] = target: Cyclin-dependent kinase 2 (Homo sapiens) (UniProt P24941); conditions: Compound concentration 1000.0 nM
[9] = target: Citron Rho-interacting kinase (Homo sapiens) (UniProt O14578); conditions: Compound concentration 1000.0 nM
[10] = target: Epithelial discoidin domain-containing receptor 1 (Homo sapiens) (UniProt Q08345); conditions: Compound concentration 1000.0 nM
[11] = target: Mitogen-activated protein kinase kinase kinase 12 (Homo sapiens) (UniProt Q12852); conditions: Compound concentration 1000.0 nM
Mitogen-activated protein kinase kinase kinase 12 (Homo sapiens), sequence (Q12852 whole entry): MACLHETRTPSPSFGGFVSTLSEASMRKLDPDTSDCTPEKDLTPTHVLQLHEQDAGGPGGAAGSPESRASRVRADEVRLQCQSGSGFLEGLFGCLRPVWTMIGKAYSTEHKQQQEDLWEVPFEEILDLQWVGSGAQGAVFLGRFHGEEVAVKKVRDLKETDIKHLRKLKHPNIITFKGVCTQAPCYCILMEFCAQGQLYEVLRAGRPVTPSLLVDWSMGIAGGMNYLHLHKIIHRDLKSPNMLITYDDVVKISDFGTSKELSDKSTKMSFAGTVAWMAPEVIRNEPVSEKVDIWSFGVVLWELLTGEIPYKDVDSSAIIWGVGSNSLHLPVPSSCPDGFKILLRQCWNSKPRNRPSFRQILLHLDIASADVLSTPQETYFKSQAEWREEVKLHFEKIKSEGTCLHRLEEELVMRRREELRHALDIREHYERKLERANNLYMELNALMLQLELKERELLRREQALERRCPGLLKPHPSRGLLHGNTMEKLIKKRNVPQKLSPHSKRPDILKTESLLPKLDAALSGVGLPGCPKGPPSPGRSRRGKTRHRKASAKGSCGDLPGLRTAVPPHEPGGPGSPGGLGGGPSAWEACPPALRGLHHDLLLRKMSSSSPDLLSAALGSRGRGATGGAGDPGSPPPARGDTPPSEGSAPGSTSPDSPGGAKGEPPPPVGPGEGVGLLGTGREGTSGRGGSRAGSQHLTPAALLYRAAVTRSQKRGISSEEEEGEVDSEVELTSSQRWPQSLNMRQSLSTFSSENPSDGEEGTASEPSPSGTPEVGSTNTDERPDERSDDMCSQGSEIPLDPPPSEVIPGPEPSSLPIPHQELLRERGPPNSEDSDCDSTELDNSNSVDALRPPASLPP

[12] = target: Ephrin type-B receptor 6 (Homo sapiens) (UniProt O15197); conditions: Compound concentration 1000.0 nM
Ephrin type-B receptor 6 (Homo sapiens), sequence (O15197 whole entry): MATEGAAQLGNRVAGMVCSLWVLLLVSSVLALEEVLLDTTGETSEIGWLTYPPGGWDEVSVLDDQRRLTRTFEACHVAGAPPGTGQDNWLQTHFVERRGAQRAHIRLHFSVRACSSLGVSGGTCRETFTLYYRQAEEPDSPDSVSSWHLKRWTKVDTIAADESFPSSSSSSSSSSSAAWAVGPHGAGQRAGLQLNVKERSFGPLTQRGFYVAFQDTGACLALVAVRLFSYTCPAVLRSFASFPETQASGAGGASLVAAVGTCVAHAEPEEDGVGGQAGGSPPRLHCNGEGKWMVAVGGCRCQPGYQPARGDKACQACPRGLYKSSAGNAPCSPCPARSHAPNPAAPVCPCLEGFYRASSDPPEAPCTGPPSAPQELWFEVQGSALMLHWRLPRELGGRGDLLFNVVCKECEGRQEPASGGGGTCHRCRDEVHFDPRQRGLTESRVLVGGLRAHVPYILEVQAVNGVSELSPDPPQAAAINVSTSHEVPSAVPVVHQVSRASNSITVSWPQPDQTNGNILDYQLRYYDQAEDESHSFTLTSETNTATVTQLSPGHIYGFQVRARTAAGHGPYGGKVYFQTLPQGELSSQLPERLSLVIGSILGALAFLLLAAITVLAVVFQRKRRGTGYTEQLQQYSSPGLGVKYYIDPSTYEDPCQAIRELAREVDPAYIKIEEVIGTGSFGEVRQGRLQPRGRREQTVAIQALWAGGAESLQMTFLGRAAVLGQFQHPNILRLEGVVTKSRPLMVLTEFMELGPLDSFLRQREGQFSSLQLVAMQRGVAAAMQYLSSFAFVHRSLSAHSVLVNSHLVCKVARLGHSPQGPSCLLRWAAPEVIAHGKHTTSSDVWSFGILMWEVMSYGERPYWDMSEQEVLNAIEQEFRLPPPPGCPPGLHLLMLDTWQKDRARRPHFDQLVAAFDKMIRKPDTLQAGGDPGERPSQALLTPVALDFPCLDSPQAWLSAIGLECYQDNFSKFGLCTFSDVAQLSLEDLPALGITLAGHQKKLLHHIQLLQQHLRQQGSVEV

[13] = target: Fibroblast growth factor receptor 1 (Homo sapiens) (UniProt P11362); conditions: Compound concentration 1000.0 nM
[14] = target: Serine/threonine-protein kinase ICK (Homo sapiens) (UniProt Q9UPZ9); conditions: Compound concentration 1000.0 nM
Serine/threonine-protein kinase ICK (Homo sapiens), sequence (Q9UPZ9 whole entry): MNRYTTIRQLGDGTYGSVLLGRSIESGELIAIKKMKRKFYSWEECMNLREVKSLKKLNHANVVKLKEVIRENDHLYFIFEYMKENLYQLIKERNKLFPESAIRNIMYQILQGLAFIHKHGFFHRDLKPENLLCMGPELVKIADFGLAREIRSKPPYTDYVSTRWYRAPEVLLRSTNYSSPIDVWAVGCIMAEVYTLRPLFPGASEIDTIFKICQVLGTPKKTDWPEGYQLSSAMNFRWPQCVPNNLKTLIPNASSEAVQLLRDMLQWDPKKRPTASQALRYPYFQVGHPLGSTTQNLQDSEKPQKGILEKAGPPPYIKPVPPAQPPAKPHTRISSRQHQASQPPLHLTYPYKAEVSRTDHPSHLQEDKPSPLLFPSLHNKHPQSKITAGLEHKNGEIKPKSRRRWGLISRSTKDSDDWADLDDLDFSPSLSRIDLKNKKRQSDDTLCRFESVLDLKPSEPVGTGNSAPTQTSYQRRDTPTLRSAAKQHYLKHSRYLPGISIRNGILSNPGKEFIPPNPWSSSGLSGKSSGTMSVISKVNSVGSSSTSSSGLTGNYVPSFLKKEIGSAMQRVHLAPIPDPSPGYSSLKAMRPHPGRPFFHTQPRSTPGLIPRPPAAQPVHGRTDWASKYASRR

[15] = target: Interleukin-1 receptor-associated kinase 4 (Homo sapiens) (UniProt Q9NWZ3); conditions: Compound concentration 1000.0 nM
[16] = target: Misshapen-like kinase 1 (Homo sapiens) (UniProt Q8N4C8); conditions: Compound concentration 1000.0 nM
Misshapen-like kinase 1 (Homo sapiens), sequence (Q8N4C8 whole entry, looked up): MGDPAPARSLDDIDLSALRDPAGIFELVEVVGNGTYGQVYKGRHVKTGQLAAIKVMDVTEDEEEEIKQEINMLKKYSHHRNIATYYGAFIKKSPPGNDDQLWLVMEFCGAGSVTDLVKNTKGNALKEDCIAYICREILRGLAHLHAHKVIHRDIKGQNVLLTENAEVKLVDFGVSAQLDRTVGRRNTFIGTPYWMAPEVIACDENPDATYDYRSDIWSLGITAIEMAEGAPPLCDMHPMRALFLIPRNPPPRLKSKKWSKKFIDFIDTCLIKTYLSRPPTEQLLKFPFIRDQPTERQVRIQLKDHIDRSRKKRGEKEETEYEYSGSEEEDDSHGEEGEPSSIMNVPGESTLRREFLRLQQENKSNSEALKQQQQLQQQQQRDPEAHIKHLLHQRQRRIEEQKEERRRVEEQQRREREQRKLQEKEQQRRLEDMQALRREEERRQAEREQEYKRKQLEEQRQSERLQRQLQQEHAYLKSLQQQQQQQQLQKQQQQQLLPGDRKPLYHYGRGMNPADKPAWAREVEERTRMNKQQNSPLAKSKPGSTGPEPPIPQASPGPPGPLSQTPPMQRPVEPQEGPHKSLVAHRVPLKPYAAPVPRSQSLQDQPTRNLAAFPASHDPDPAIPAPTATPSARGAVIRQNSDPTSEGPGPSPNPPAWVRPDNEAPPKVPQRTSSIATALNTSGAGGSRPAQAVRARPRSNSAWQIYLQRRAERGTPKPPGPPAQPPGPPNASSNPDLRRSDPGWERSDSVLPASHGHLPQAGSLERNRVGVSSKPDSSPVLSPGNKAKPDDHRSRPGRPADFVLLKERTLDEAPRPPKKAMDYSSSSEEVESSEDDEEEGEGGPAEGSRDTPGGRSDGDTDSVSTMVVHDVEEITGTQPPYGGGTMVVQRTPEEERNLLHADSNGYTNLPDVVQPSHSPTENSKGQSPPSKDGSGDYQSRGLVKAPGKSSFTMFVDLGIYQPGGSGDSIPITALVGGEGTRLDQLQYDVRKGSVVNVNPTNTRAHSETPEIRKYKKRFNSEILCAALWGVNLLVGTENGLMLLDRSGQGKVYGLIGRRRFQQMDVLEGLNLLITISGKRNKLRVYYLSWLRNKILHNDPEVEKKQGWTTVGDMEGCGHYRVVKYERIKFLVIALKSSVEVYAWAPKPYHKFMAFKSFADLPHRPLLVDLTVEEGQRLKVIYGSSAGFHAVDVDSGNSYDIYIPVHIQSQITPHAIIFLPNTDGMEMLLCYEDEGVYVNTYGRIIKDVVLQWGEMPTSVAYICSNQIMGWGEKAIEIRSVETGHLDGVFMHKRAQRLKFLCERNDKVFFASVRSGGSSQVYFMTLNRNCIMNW

[17] = target: Serine/threonine-protein kinase 24 (Homo sapiens) (UniProt Q9Y6E0); conditions: Compound concentration 1000.0 nM
[18] = target: Serine/threonine-protein kinase 38-like (Homo sapiens) (UniProt Q9Y2H1); conditions: Compound concentration 1000.0 nM
[19] = target: Serine/threonine-protein kinase NLK (Homo sapiens) (UniProt Q9UBE8); conditions: Compound concentration 1000.0 nM
[20] = target: Mitogen-activated protein kinase 11 (Homo sapiens) (UniProt Q15759); conditions: Compound concentration 1000.0 nM
[21] = target: Mitogen-activated protein kinase 13 (Homo sapiens) (UniProt O15264); conditions: Compound concentration 1000.0 nM
[22] = target: Cyclin-dependent kinase 16 (Homo sapiens) (UniProt Q00536); conditions: Compound concentration 1000.0 nM
[23] = target: Cyclin-dependent kinase 2 homolog (Plasmodium falciparum (isolate 3D7)) (UniProt P61075); conditions: Compound concentration 1000.0 nM
[24] = target: Phosphatidylinositol 4,5-bisphosphate 3-kinase catalytic subunit beta isoform (Homo sapiens) (UniProt P42338); conditions: Compound concentration 1000.0 nM
[25] = target: Serine/threonine-protein kinase N2 (Homo sapiens) (UniProt Q16513); conditions: Compound concentration 1000.0 nM
[26] = target: Serine/threonine-protein kinase RIO2 (Homo sapiens) (UniProt Q9BVS4); conditions: Compound concentration 1000.0 nM
Serine/threonine-protein kinase RIO2 (Homo sapiens), sequence (Q9BVS4 whole entry, looked up): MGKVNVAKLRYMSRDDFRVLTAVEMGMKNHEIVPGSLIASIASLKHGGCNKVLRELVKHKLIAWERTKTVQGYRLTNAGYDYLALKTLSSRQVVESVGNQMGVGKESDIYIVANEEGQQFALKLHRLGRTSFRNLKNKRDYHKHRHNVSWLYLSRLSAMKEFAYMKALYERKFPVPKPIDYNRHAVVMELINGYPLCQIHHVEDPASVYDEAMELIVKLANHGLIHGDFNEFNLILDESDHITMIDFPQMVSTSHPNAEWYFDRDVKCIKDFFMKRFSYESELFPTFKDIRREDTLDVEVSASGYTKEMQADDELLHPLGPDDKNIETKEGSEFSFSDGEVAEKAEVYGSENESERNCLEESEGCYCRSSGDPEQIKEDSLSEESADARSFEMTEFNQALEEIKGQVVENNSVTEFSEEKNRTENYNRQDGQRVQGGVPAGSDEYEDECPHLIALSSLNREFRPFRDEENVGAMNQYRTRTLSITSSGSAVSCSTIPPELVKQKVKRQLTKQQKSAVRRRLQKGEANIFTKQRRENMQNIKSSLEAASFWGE

[27] = target: Receptor-interacting serine/threonine-protein kinase 1 (Homo sapiens) (UniProt Q13546); conditions: Compound concentration 1000.0 nM
Receptor-interacting serine/threonine-protein kinase 1 (Homo sapiens), sequence (Q13546 whole entry): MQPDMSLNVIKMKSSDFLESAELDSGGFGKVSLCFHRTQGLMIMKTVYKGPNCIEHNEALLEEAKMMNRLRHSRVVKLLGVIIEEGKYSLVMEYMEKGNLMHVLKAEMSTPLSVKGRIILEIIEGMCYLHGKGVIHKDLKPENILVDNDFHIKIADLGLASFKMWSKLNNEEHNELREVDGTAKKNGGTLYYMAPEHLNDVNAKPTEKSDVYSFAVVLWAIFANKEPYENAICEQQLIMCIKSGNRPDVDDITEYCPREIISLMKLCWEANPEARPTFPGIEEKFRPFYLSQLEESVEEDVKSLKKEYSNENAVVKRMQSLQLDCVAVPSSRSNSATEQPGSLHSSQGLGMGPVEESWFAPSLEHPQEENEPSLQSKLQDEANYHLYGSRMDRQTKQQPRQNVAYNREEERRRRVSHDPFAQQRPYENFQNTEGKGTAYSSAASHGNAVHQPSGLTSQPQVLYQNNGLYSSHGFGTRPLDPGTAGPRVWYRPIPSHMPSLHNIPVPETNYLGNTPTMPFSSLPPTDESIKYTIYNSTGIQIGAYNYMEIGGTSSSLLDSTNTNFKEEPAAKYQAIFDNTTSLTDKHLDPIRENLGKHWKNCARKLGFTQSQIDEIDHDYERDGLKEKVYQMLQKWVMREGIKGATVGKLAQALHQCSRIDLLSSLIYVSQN

[28] = target: Receptor-interacting serine/threonine-protein kinase 2 (Homo sapiens) (UniProt O43353); conditions: Compound concentration 1000.0 nM
[29] = target: Dual serine/threonine and tyrosine protein kinase (Homo sapiens) (UniProt Q6XUX3); conditions: Compound concentration 1000.0 nM
[30] = target: Proto-oncogene tyrosine-protein kinase ROS (Homo sapiens) (UniProt P08922); conditions: Compound concentration 1000.0 nM
[31] = target: Serine/threonine-protein kinase SIK2 (Homo sapiens) (UniProt Q9H0K1); conditions: Compound concentration 1000.0 nM
[32] = target: Mitogen-activated protein kinase kinase kinase 7 (Homo sapiens) (UniProt O43318); conditions: Compound concentration 1000.0 nM
[33] = target: Serine/threonine-protein kinase TAO1 (Homo sapiens) (UniProt Q7L7X3); conditions: Compound concentration 1000.0 nM
[34] = target: Serine/threonine-protein kinase TBK1 (Homo sapiens) (UniProt Q9UHD2); conditions: Compound concentration 1000.0 nM
[35] = target: Serine/threonine-protein kinase VRK2 (Homo sapiens) (UniProt Q86Y07); conditions: Compound concentration 1000.0 nM
[36] = target: GABA-A receptor; anion channel (Rattus norvegicus) (UniProt O09028+P15431+P18506+P18508+P19969+P20236+P23574+P23576+P28471+P28473+P30191+P62813+P63079+P63138+Q91ZM7+Q9ES14); conditions: Compound concentration 10.0 uM

| SMILES | IC50 [1] | % Inhibition of Control Specific Binding (Mean n=2) [2] | % Inhibition of Control Specific Binding (Mean n=2) [3] | % Inhibition of Control Specific Binding (Mean n=2) [4] | % Inhibition of Control Specific Binding (Mean n=2) [5] | residual activity [6] | residual activity [7] | residual activity [8] | residual activity [9] | residual activity [10] | residual activity [11] | residual activity [12] | residual activity [13] | residual activity [14] | residual activity [15] | residual activity [16] | residual activity [17] | residual activity [18] | residual activity [19] | residual activity [20] | further results |
| --- | --- | --- | --- | --- | --- | --- | --- | --- | --- | --- | --- | --- | --- | --- | --- | --- | --- | --- | --- | --- | --- |
| O=C(NS(=O)(=O)c1ccc(NCC2CCOCC2)c([N+](=O)[O-])c1)c1ccc(N2CCN(Cc3ccc(C(F)(F)F)cc3-c3ccc(Cl)cc3)CC2)cc1Oc1cnc2[nH]ccc2c1 [A-1210227] | 296 nM (not active) | 5.3% | -44.1% | -0.7% | 12.3% | 100% | 90% | 100% | 91% | 100% | 100% | 82% | 91% | 84% | 85% | 84% | 100% | 93% | 93% | 78% | residual activity [21]: 99%; residual activity [22]: 67%; residual activity [23]: 100%; residual activity [24]: 100%; residual activity [25]: 93%; residual activity [26]: 90%; residual activity [27]: 99%; residual activity [28]: 100%; residual activity [29]: 94%; residual activity [30]: 87%; residual activity [31]: 100%; residual activity [32]: 100%; residual activity [33]: 87%; residual activity [34]: 74%; residual activity [35]: 89%; inhibition [36]: 17.9% |
| CO[C@H]1CC[C@H](CNc2ccc(S(=O)(=O)NC(=O)c3ccc(N4CCN(CC5=C(c6ccc(Cl)cc6)CC(C)(C)CC5)CC4)cc3Oc3cnc4[nH]ccc4c3)cc2[N+](=O)[O-])CC1 [A-1211212] | 1.4 nM (active) | 4.7% | 1.6% | -12.2% | 20.6% | 80% | 100% | 100% | 74% | 99% | 100% | 87% | 68% | 68% | 83% | 88% | 75% | 94% | 100% | 60% | residual activity [21]: 96%; residual activity [22]: 61%; residual activity [23]: 100%; residual activity [24]: 100%; residual activity [25]: 97%; residual activity [26]: 89%; residual activity [27]: 77%; residual activity [28]: 85%; residual activity [29]: 100%; residual activity [30]: 72%; residual activity [31]: 100%; residual activity [32]: 100%; residual activity [33]: 88%; residual activity [34]: 60%; residual activity [35]: 71%; inhibition [36]: 23.6% |
